Laboratory results taken from US10131652B2, “Pyrimidinyloxy benzene derivatives as herbicides” (E. I. DU PONT DE NEMOURS AND COMPANY, priority 2014, dated 2018).

Key:
Format in all cases: in vivo
[1] = test system: barnyardgrass (Echinochloa crus-galli); test: Test C flooded paddy test plant response; settings: Flood, 250 g ai/ha; scale of 0 to 100 where 0 is no effect and 100 is complete control; 13 to 15 days
Procedure, shortened: (§1)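 Two-leaf stage → flood to 3 cm → compound into water → hold depth, greenhouse 13–15 d → visual score vs controls (0 none, 100 complete control).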

[2] = test system: small-flower umbrella sedge (Cyperus difformis); test: Test C flooded paddy test plant response; settings: Flood, 250 g ai/ha; scale of 0 to 100 where 0 is no effect and 100 is complete control; 13 to 15 days
Procedure, shortened: as §1

rice (Oryza sativa) = test: Test C flooded paddy test plant response; settings: Flood, 250 g ai/ha; scale of 0 to 100 where 0 is no effect and 100 is complete control; 13 to 15 days
Procedure, shortened: as §1

[3] = test system: ducksalad (Heteranthera limosa); test: Test C flooded paddy test plant response; settings: Flood, 250 g ai/ha; scale of 0 to 100 where 0 is no effect and 100 is complete control; 13 to 15 days
Procedure, shortened: as §1

[4] = test system: johnsongrass (Sorghum halepense); test: Test D pre-/postemergence plant response
Procedure, shortened: (§2)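 Seeds sown in loam–sand blend got preemergence sprays of test chemicals in a non-phytotoxic solvent with surfactant; postemergence sprays went on plants at 1- to 4-leaf stage (2 to 18 cm) in peat/vermiculite medium. After 13 to 15 days in greenhouse, visual injury versus controls scored 0 (no effect) to 100 (complete control).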

[5] = test system: ragweed (common ragweed, Ambrosia elatior); test: Test D pre-/postemergence plant response
Procedure, shortened: as §2

[6] = test system: yellow nutsedge (Cyperus esculentus); test: Test D pre-/postemergence plant response
Procedure, shortened: as §2

[7] = test system: galium (catchweed bedstraw, Galium aparine); test: Test D pre-/postemergence plant response
Procedure, shortened: as §2

[8] = test system: winter wheat (Triticum aestivum); test: Test D pre-/postemergence plant response
Procedure, shortened: as §2

[9] = test system: oilseed rape (Brassica napus); test: Test D pre-/postemergence plant response
Procedure, shortened: as §2

corn (Zea mays) = test: Test B pre-/postemergence plant response
Procedure, shortened: (§3)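 Seeds in loam–sand blend given preemergence soil spray; separately, plants at one- to two-leaf stage (2–10 cm) sprayed postemergence, compounds in non-phytotoxic solvent with surfactant. Injury rated visually versus untreated controls after ~10 days in greenhouse, 0 (no effect) to 100 (complete control).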

[10] = test system: barnyardgrass (Echinochloa crus-galli); test: Test B pre-/postemergence plant response
Procedure, shortened: as §3

[11] = test system: pigweed (Amaranthus retroflexus); test: Test B pre-/postemergence plant response
Procedure, shortened: as §3

[12] = test system: giant foxtail (Setaria faberii); test: Test B pre-/postemergence plant response
Procedure, shortened: as §3

[13] = test system: wheat (Triticum aestivum); test: Test B pre-/postemergence plant response
Procedure, shortened: as §3

[14] = Postemergence, 31 g ai/ha, scale 0 to 100 (0 no effect, 100 complete control)
[15] = Postemergence, 62 g ai/ha, scale 0 to 100, 0 no effect, 100 complete control
[16] = Postemergence, 125 g ai/ha, scale 0 to 100, 0 no effect, 100 complete control
[17] = Preemergence, 8 g ai/ha, scale 0 to 100 (0 no effect, 100 complete control)
[18] = Preemergence, 16 g ai/ha, scale 0 to 100 (0 no effect, 100 complete control)
[19] = Preemergence, 31 g ai/ha, scale 0 to 100 (0 no effect, 100 complete control)
[20] = Preemergence, 62 g ai/ha, scale 0 to 100 (0 no effect, 100 complete control)
[21] = 125 g ai/ha, postemergence, 0 to 100 scale, 0 no effect, 100 complete control
[22] = Postemergence, 31 g ai/ha, 0 to 100 scale (0 no effect, 100 complete control)
[23] = 31 g ai/ha, Preemergence, 0 to 100 scale where 0 is no effect and 100 is complete control
[24] = Preemergence, 125 g ai/ha, 0 to 100 scale (0 no effect, 100 complete control)
[25] = 31 g ai/ha, Postemergence, 0 to 100 scale, 0 no effect, 100 complete control
[26] = Preemergence, 125 g ai/ha, 0 to 100 scale where 0 is no effect and 100 is complete control
[27] = Postemergence, 500 g ai/ha, 0 to 100 scale (0 no effect, 100 complete control)
[28] = Preemergence, 500 g ai/ha, 0 to 100 scale where 0 is no effect and 100 is complete control

FC(F)(Cl)c1cc(-c2ccccc2Oc2ncc(Cl)cn2)no1 [Compound 143]
Barnyardgrass plant response rating [1]: 30
Sedge, Umbrella plant response rating [2]: 100
Rice plant response rating (rice (Oryza sativa)): 35
Ducksalad plant response rating [3]: 85
Johnsongrass plant response rating [4, 14]: 5
Plant response rating, Johnsongrass [4, 15]: 30
Plant response rating, Johnsongrass [4, 16]: 30
Plant response rating, Johnsongrass [4, 17]: 35
Plant response rating, Johnsongrass [4, 18]: 15
Plant response rating, Johnsongrass [4, 19]: 60
Plant response rating, Johnsongrass [4, 20]: 80
Ragweed plant response rating [5, 14]: 5
Plant response rating, Ragweed [5, 15]: 10
Plant response rating, Ragweed [5, 16]: 30
Plant response rating, Ragweed [5, 17]: 0
Plant response rating, Ragweed [5, 18]: 0
Plant response rating, Ragweed [5, 19]: 30
Plant response rating, Ragweed [5, 20]: 40
Nutsedge, Yellow plant response rating [6, 14]: 5
Plant response rating, Nutsedge, Yellow [6, 15]: 5
Plant response rating, Nutsedge, Yellow [6, 16]: 5
Plant response rating, Nutsedge, Yellow [6, 17]: 0
Plant response rating, Nutsedge, Yellow [6, 18]: 0
Plant response rating, Nutsedge, Yellow [6, 19]: 0
Plant response rating, Nutsedge, Yellow [6, 20]: 5
Galium plant response rating [7, 14]: 70
Plant response rating, Galium [7, 15]: 70
Plant response rating, Galium [7, 16]: 100
Plant response rating, Galium [7, 17]: 10
Plant response rating, Galium [7, 18]: 10
Plant response rating, Galium [7, 19]: 80
Plant response rating, Galium [7, 20]: 80
Wheat plant response rating [8, 14]: 5
Plant response rating, Wheat [8, 15]: 5
Plant response rating, Wheat [8, 16]: 5
Plant response rating, Wheat [8, 17]: 0
Plant response rating, Wheat [8, 18]: 0
Plant response rating, Wheat [8, 19]: 0
Plant response rating, Wheat [8, 20]: 0
Oilseed Rape plant response rating [9, 14]: 50
Plant response rating, Oilseed Rape [9, 15]: 60
Plant response rating, Oilseed Rape [9, 16]: 65
Plant response rating, Oilseed Rape [9, 17]: 0
Plant response rating, Oilseed Rape [9, 18]: 0
Plant response rating, Oilseed Rape [9, 19]: 85
Plant response rating, Oilseed Rape [9, 20]: 95
Plant response rating, Corn (corn (Zea mays); [21]): 30
Plant response rating, Corn (corn (Zea mays); [22]): 40
Plant response rating, Barnyardgrass [10, 23]: 20
Plant response rating, Barnyardgrass [10, 21]: 90
Plant response rating, Barnyardgrass [10, 22]: 10
Barnyardgrass plant response rating [10, 24]: 90
Plant response rating, Pigweed [11, 23]: 90
Plant response rating, Pigweed [11, 21]: 100
Plant response rating, Pigweed [11, 22]: 90
Pigweed plant response rating [11, 24]: 100
Plant response rating, Foxtail, Giant [12, 23]: 70
Plant response rating, Foxtail, Giant [12, 21]: 80
Plant response rating, Foxtail, Giant [12, 22]: 10
Foxtail, Giant plant response rating [12, 24]: 100
Plant response rating, Wheat [13, 21]: 30
Plant response rating, Wheat [13, 22]: 20

FC(F)c1cc(-c2c(Cl)cccc2Oc2ncc(Br)cn2)on1 [Compound 121]
Barnyardgrass plant response rating [1]: 60
Sedge, Umbrella plant response rating [2]: 90
Rice plant response rating (rice (Oryza sativa)): 45
Ducksalad plant response rating [3]: 90
Johnsongrass plant response rating [4, 14]: 35
Plant response rating, Johnsongrass [4, 15]: 60
Plant response rating, Johnsongrass [4, 16]: 60
Ragweed plant response rating [5, 14]: 65
Plant response rating, Ragweed [5, 15]: 75
Plant response rating, Ragweed [5, 16]: 98
Nutsedge, Yellow plant response rating [6, 14]: 10
Plant response rating, Nutsedge, Yellow [6, 15]: 5
Plant response rating, Nutsedge, Yellow [6, 16]: 20
Galium plant response rating [7, 14]: 90
Plant response rating, Galium [7, 15]: 100
Plant response rating, Galium [7, 16]: 95
Wheat plant response rating [8, 14]: 0
Plant response rating, Wheat [8, 15]: 0
Plant response rating, Wheat [8, 16]: 0
Oilseed Rape plant response rating [9, 14]: 80
Plant response rating, Oilseed Rape [9, 15]: 95
Plant response rating, Oilseed Rape [9, 16]: 95
Plant response rating, Corn (corn (Zea mays); [25]): 20
Plant response rating, Corn (corn (Zea mays); [21]): 40
Plant response rating, Barnyardgrass [10, 25]: 50
Plant response rating, Barnyardgrass [10, 23]: 70
Plant response rating, Barnyardgrass [10, 21]: 90
Plant response rating, Barnyardgrass [10, 26]: 90
Plant response rating, Pigweed [11, 25]: 100
Plant response rating, Pigweed [11, 23]: 100
Plant response rating, Pigweed [11, 21]: 100
Plant response rating, Foxtail, Giant [12, 25]: 70
Plant response rating, Foxtail, Giant [12, 23]: 100
Plant response rating, Foxtail, Giant [12, 21]: 90
Plant response rating, Foxtail, Giant [12, 26]: 100
Plant response rating, Wheat [13, 25]: 0
Plant response rating, Wheat [13, 21]: 30

FCc1cc(-c2ccccc2Oc2ncc(Cl)cn2)on1 [Compound 224]
Barnyardgrass plant response rating [1]: 0
Sedge, Umbrella plant response rating [2]: 65
Rice plant response rating (rice (Oryza sativa)): 0
Ducksalad plant response rating [3]: 70
Plant response rating (scale 0 to 100), Johnsongrass ([4]; Postemergence, 16 g ai/ha): 5
Johnsongrass plant response rating [4, 14]: 5
Plant response rating, Johnsongrass [4, 15]: 5
Plant response rating, Johnsongrass [4, 16]: 5
Plant response rating (scale 0 to 100), Ragweed ([5]; Postemergence, 16 g ai/ha): 30
Ragweed plant response rating [5, 14]: 55
Ragweed plant response rating [5, 15]: 55
Plant response rating, Ragweed [5, 16]: 70
Plant response rating (scale 0 to 100), Nutsedge, Yellow ([6]; Postemergence, 16 g ai/ha): 0
Nutsedge, Yellow plant response rating [6, 14]: 0
Nutsedge, Yellow plant response rating [6, 15]: 5
Plant response rating, Nutsedge, Yellow [6, 16]: 5
Plant response rating (scale 0 to 100), Galium ([7]; Postemergence, 16 g ai/ha): 40
Galium plant response rating [7, 14]: 50
Plant response rating, Galium [7, 15]: 60
Plant response rating, Galium [7, 16]: 60
Plant response rating (scale 0 to 100), Wheat ([8]; Postemergence, 16 g ai/ha): 0
Wheat plant response rating [8, 14]: 0
Wheat plant response rating [8, 15]: 0
Plant response rating, Wheat [8, 16]: 15
Plant response rating (scale 0 to 100), Oilseed Rape ([9]; Postemergence, 16 g ai/ha): 0
Oilseed Rape plant response rating [9, 14]: 10
Oilseed Rape plant response rating [9, 15]: 50
Plant response rating, Oilseed Rape [9, 16]: 98
Plant response rating, Corn (corn (Zea mays); [21]): 20
Plant response rating, Corn (corn (Zea mays); [22]): 0
Plant response rating, Barnyardgrass [10, 23]: 10
Plant response rating, Barnyardgrass [10, 21]: 50
Plant response rating, Barnyardgrass [10, 22]: 30
Barnyardgrass plant response rating [10, 24]: 50
Plant response rating, Pigweed [11, 23]: 90
Plant response rating, Pigweed [11, 21]: 100
Plant response rating, Pigweed [11, 22]: 70
Pigweed plant response rating [11, 24]: 100
Plant response rating, Foxtail, Giant [12, 23]: 40
Plant response rating, Foxtail, Giant [12, 21]: 50
Plant response rating, Foxtail, Giant [12, 22]: 20
Foxtail, Giant plant response rating [12, 24]: 90
Plant response rating, Wheat [13, 21]: 0
Plant response rating, Wheat [13, 22]: 0

Clc1cnc(Oc2ccccc2-c2ccon2)nc1 [Compound 185]
Barnyardgrass plant response rating [1]: 0
Sedge, Umbrella plant response rating [2]: 0
Rice plant response rating (rice (Oryza sativa)): 0
Ducksalad plant response rating [3]: 0
Plant response rating (scale 0 to 100), Johnsongrass ([4]; Postemergence, 16 g ai/ha): 0
Johnsongrass plant response rating [4, 14]: 0
Plant response rating, Johnsongrass [4, 15]: 5
Plant response rating, Johnsongrass [4, 16]: 5
Plant response rating (scale 0 to 100), Ragweed ([5]; Postemergence, 16 g ai/ha): 10
Ragweed plant response rating [5, 14]: 20
Ragweed plant response rating [5, 15]: 15
Plant response rating, Ragweed [5, 16]: 25
Plant response rating (scale 0 to 100), Nutsedge, Yellow ([6]; Postemergence, 16 g ai/ha): 0
Nutsedge, Yellow plant response rating [6, 14]: 0
Nutsedge, Yellow plant response rating [6, 15]: 0
Plant response rating, Nutsedge, Yellow [6, 16]: 30
Plant response rating (scale 0 to 100), Galium ([7]; Postemergence, 16 g ai/ha): 0
Galium plant response rating [7, 14]: 0
Plant response rating, Galium [7, 15]: 5
Plant response rating, Galium [7, 16]: 5
Plant response rating (scale 0 to 100), Wheat ([8]; Postemergence, 16 g ai/ha): 0
Wheat plant response rating [8, 14]: 0
Wheat plant response rating [8, 15]: 0
Plant response rating, Wheat [8, 16]: 0
Plant response rating (scale 0 to 100), Oilseed Rape ([9]; Postemergence, 16 g ai/ha): 0
Oilseed Rape plant response rating [9, 14]: 0
Oilseed Rape plant response rating [9, 15]: 0
Plant response rating, Oilseed Rape [9, 16]: 0
Plant response rating, Corn (corn (Zea mays); [21]): 0
Plant response rating, Corn (corn (Zea mays); [27]): 10
Plant response rating, Barnyardgrass [10, 21]: 10
Plant response rating, Barnyardgrass [10, 27]: 40
Barnyardgrass plant response rating [10, 24]: 20
Plant response rating, Barnyardgrass [10, 28]: 70
Plant response rating, Pigweed [11, 21]: 90
Plant response rating, Pigweed [11, 27]: 100
Pigweed plant response rating [11, 24]: 90
Plant response rating, Pigweed [11, 28]: 100
Plant response rating, Foxtail, Giant [12, 21]: 10
Plant response rating, Foxtail, Giant [12, 27]: 70
Foxtail, Giant plant response rating [12, 24]: 30
Plant response rating, Foxtail, Giant [12, 28]: 90
Plant response rating, Wheat [13, 21]: 0
Plant response rating, Wheat [13, 27]: 0
